Results as given in publication PMC8041284, “Tunable Methacrylamides for Covalent Ligand Directed Release Chemistry” (Journal of the American Chemical Society, 2021).

These compounds were tested against BTK (Homo sapiens, UniProt Q06187) (assay: biochemical). Settings: read-out: BTK inhibition (%).
Chain of BTK (Q06187 402-655 limits assumed): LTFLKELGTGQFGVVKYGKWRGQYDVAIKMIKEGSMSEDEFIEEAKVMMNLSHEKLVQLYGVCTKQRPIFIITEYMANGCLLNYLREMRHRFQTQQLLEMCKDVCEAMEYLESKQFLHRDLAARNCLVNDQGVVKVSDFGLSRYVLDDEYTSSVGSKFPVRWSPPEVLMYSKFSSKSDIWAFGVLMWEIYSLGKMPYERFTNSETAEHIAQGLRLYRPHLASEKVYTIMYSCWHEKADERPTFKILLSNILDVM

| SMILES | inhibition at 10 µM |
| --- | --- |
| CC(C)C(Br)C(=O)NC(N)=O (stereo not shown) [PCM-0216023] | 12.4% |

Same assay, conditions: read-out: BTK inhibition (%), 0.75 uM BTK, […] probe 3l, 15 min preincubation

| inhibition at 10 µM | SMILES |
| --- | --- |
| 44% | CO[C@H]1C[C@H](O[C@H]2[C@H](C)O[C@@H](O[C@@H]3/C(C)=C/C[C@@H]4C[C@@H](C[C@]5(C=C[C@H](C)[C@@H](C6CCCCC6)O5)O4)OC(=O)[C@@H]4C=C(C)[C@@H](O)[C@H]5OC/C(=C\C=C\[C@@H]3C)[C@]54O)C[C@@H]2OC)O[C@@H](C)[C@@H]1O [PCM-0215971] |
| 95% | C=CC(=O)N1C[C@H](Nc2ncnc3[nH]ccc23)CC[C@@H]1C [PCM-0215972] |
| 11.6% | CCCOC(=O)c1cc(O)c(O)c(O)c1 [PCM-0215973] |
| 2.3% | COc1ccc(C(=O)O)c(O)c1 [PCM-0215974] |
| -13.9% | COc1ccc(C(=O)O)cc1O [PCM-0215975] |
| -3.1% | Oc1ccc2ccccc2c1N=Nc1ccc(N=Nc2ccccc2)cc1 [PCM-0215976] |
| -9.3% | CC(C)C1=CC2=CC[C@@H]3[C@](C)(CCC[C@@]3(C)C(=O)O)[C@H]2CC1 [PCM-0215977] |
| -13.1% | O=C(O)CCCCCCCC(O)C(O)CCCCCCO (stereo not shown) [PCM-0215978] |
| 17.8% | CCCCCCCCCC[C@H](C(=O)O)[C@]1(C(=O)O)CCC(=O)O1 [PCM-0215979] |
| 10.8% | OC1OC[C@@H](O)[C@@H](O)[C@@H]1O (stereo partly shown) [PCM-0215980] |
| 10% | Cc1cc(N2CCCCC2)nc2ccccc12 [PCM-0215982] |
| -21.6% | C[C@H]1c2cccc(O)c2C(O)=C2C(=O)[C@]3(O)C(O)=C(C(N)=O)C(=O)[C@@H](N(C)C)[C@@H]3[C@@H](O)[C@@H]21 [PCM-0215985] |
| 10% | CCc1cc(Nc2nc(-c3ccc(-n4cnc(C)c4)c(F)c3)cs2)c(C)cc1C [PCM-0215986] |
| -28.9% | CCCCCCCCCCCCCCCCOc1nc2ccc(C)cc2c(=O)o1 [PCM-0215987] |
| 15.4% | CCCc1cc(C)[nH]c(=O)c1CNC(=O)c1cc(-c2ccc(N3CCN(C)CC3)nc2)nc2c1cnn2C(C)C [PCM-0215988] |
| 20.1% | CCOC(=O)N1CCC(CN(Cc2ccc(Cl)cc2)Cc2ccc([N+](=O)[O-])s2)C1 (stereo not shown) [PCM-0215989] |
| 34% | O=c1cc(-c2ccc(O)c(O)c2O)oc2ccccc12 [PCM-0215990] |
| 14.7% | CC1(N)CCN(c2cnc(-c3cccc(Cl)c3Cl)c(N)n2)CC1 [PCM-0215991] |
| -13.1% | C=C1CCN([C@H](C)[C@](O)(Cn2cncn2)c2ccc(F)cc2F)CC1 [PCM-0215992] |
| 9.3% | NNc1nnc(NN)c2ccccc12 [PCM-0215993] |
| 8.5% | Nc1ccc(S(=O)(=O)Nc2cnc3ccccc3n2)cc1 [PCM-0215994] |
| 23.2% | NCCNc1ccc(NCCN)c2c1C(=O)c1ccncc1C2=O [PCM-0215996] |
| 23.2% | Cc1cccc(C)c1NC(=O)c1cc(S(N)(=O)=O)c(Cl)cc1O [PCM-0215998] |
| 2.3% | CC(=O)OC/C=C(\C)CCC=C(C)C [PCM-0216003] |
| -20.8% | CO[C@@H]1[C@@H](OC)[C@H](C)[C@@](O)(CC(=O)O)O[C@H]1[C@H](C)[C@H]1O[C@@]2(CC[C@@](C)([C@H]3CC[C@@](C)([C@@H]4O[C@@H]([C@H]5O[C@](C)(O)[C@H](C)C[C@@H]5C)C[C@@H]4O[C@@H]4C[C@H](OC)[C@@H](OC)[C@H](C)O4)O3)O2)C[C@H](O)[C@H]1C [PCM-0216004] |
| -20.1% | CC[C@H]1OC(=O)C[C@@H](OC(C)=O)[C@H](C)[C@@H](O[C@@H]2O[C@H](C)[C@@H](O[C@H]3C[C@@](C)(O)[C@@H](OC(=O)CC(C)C)[C@H](C)O3)[C@H](N(C)C)[C@H]2O)[C@@H](CC=O)C[C@@H](C)C(=O)/C=C/C(C)=C/[C@@H]1CO[C@@H]1O[C@H](C)[C@@H](O)[C@@H](OC)[C@H]1OC [PCM-0216006] |

| inhibition at 10 µM | SMILES |
| --- | --- |
| -6.9% | Cc1c(C(=O)C=Cc2ccccc2)[n+](=O)c2ccccc2n1[O-] [PCM-0216007] |
| 12.4% | N#CCC1(n2cc(-c3ncnc4[nH]ccc34)cn2)CN(C2CCN(C(=O)c3ccnc(C(F)(F)F)c3F)CC2)C1 [PCM-0216009] |
| 81.1% | CC/C(=C(/c1ccc(/C=C/C(=O)O)cc1)c1ccc2[nH]ncc2c1)c1ccc(F)cc1Cl [PCM-0216010] |
| 6.9% | Cc1ccc(CN(CC(O)COc2cccc3[nH]ccc23)C(C)(C)C)cc1 (stereo not shown) [PCM-0216011] |
| 39.4% | O=C(Cn1nnc(-c2ccncc2)c1-c1ccccc1)Nc1ccc(-c2ccccc2)cn1 [PCM-0216012] |
| 2.1% | CC(=O)Nc1ccc(OC(=O)c2ccccc2OC(C)=O)cc1 [PCM-0216013] |
| 13.9% | CC(=O)O[C@H]1CC(=O)OC(C)(C)[C@@H]2CC(=O)[C@]3(C)[C@H](CC[C@@]4(C)[C@H](c5ccoc5)OC(=O)[C@H]5O[C@]543)[C@@]12C [PCM-0216014] |
| 79.3% | Cc1nc(Nc2ccc(F)cc2)nc(N2CCc3ccccc3C2C)c1C (stereo not shown) [PCM-0216015] |
| 28.3% | CN1CC(O)c2cc(N=NC(N)=O)c(O)cc21 (stereo not shown) [PCM-0216016] |
| 11.6% | COCC(=O)Nc1cc(Sc2ccccc2)ccc1N=C(NC(=O)OC)NC(=O)OC [PCM-0216017] |
| -17% | O=C(Nc1cccc(C2=NCCN2)c1)Nc1cccc(C2=NCCN2)c1 [PCM-0216019] |
| -28.9% | CC(C)(CO)[C@@H](O)C(=O)NCCC(=O)NCCSSCCNC(=O)CCNC(=O)[C@H](O)C(C)(C)CO [PCM-0216020] |
| -11.7% | Cc1c(C(C)C)c(=O)n(-c2ccccc2)n1C [PCM-0216024] |
| 79.3% | CC(C)(C)c1nc(-c2ccc(NC(=O)Nc3cccc(C(F)(F)F)c3)c3ccccc23)c2c(N)nccn12 [PCM-0216026] |
| -61.5% | CC(C)OC(=O)CCC/C=C\C[C@@H]1[C@@H](/C=C/C(F)(F)COc2ccccc2)[C@H](O)C[C@@H]1O [PCM-0216028] |
| 7.7% | O=C(O)COc1ccc(Br)cc1/C=C1\SC(=S)N(Cc2cccnc2)C1=O [PCM-0216029] |
| -9.7% | CC(C)=CCC/C(C)=C/CC/C(C)=C/CC/C=C(\C)CC/C=C(\C)CCC=C(C)C [PCM-0216030] |
| -8.6% | CCCCCCCCC(=O)O [PCM-0216031] |
| 3.1% | CC(C)=CCC/C(C)=C\CO [PCM-0216032] |
| 31.7% | Nc1ccc(/C=C/C(=O)NCc2cc3cc(-c4ccc(C(=O)N5CCC(F)(F)CC5)cc4)cc(-c4ccc(F)cc4)c3o2)cn1 [PCM-0216035] |
| -2.3% | CCCCCCCCCCCCN1CCCCCC1=O [PCM-0216037] |
| 8.5% | CC[C@H](Nc1ncnc2nc[nH]c12)c1oc2ccccc2c(=O)c1-c1cccc(F)c1 [PCM-0216040] |
| 47.1% | NC(=O)c1cnc(NCCc2ccc(O)c(Cl)c2)nc1NCc1ccccc1 [PCM-0216041] |
| 1.5% | CC1(C)Cc2c(sc(NC(=O)c3ccn[nH]3)c2C(N)=O)C(C)(C)O1 [PCM-0216042] |
| 1.7% | C[N+](C)(C)CCOP(=O)([O-])OC[C@H](O)CO [PCM-0216043] |

| SMILES | inhibition at 10 µM |
| --- | --- |
| CC(C)c1ccc(CO)cc1 [PCM-0216002] | -6.2% |
| CC(=O)O[C@H]1CC[C@H]2[C@@H]3CCc4cc(O)ccc4[C@H]3CC[C@]12C [PCM-0216021] | 3.1% |
| CC(C)CCC[C@@H](C)[C@H]1CC[C@H]2[C@@H]3CC[C@H]4C[C@@H](O)CC[C@]4(C)[C@H]3CC[C@]12C [PCM-0216033] | -9.4% |
